What was measured:
[1] = molecular target: Epidermal growth factor receptor (Homo sapiens, UniProt P00533); test: Inhibition of wild-type EGFR expressed using baculovirus expression system by ELISA
A549 = test: Antiproliferative activity against human A549 cells over-expressing EGFR gene after 72 hrs by SRB assay; format: functional, cell-based; settings: A549, 72 h
A-431 = test: Antiproliferative activity against human A431 cells over-expressing EGFR gene after 72 hrs by SRB assay; format: functional, cell-based; settings: A-431, 72 h
[2] = molecular target: Epidermal growth factor receptor (Homo sapiens, UniProt P00533, L858R/T790M); test: Inhibition of EGFR T790M/L858R mutant expressed using baculovirus expression system by ELISA
NCI-H1975 = test: Antiproliferative activity against human NCI-H1975 cells over-expressing EGFR mutant gene after 72 hrs by SRB assay; format: functional, cell-based; settings: NCI-H1975, 72 h

Sequence of Epidermal growth factor receptor (Homo sapiens, UniProt P00533) (P00533 whole entry): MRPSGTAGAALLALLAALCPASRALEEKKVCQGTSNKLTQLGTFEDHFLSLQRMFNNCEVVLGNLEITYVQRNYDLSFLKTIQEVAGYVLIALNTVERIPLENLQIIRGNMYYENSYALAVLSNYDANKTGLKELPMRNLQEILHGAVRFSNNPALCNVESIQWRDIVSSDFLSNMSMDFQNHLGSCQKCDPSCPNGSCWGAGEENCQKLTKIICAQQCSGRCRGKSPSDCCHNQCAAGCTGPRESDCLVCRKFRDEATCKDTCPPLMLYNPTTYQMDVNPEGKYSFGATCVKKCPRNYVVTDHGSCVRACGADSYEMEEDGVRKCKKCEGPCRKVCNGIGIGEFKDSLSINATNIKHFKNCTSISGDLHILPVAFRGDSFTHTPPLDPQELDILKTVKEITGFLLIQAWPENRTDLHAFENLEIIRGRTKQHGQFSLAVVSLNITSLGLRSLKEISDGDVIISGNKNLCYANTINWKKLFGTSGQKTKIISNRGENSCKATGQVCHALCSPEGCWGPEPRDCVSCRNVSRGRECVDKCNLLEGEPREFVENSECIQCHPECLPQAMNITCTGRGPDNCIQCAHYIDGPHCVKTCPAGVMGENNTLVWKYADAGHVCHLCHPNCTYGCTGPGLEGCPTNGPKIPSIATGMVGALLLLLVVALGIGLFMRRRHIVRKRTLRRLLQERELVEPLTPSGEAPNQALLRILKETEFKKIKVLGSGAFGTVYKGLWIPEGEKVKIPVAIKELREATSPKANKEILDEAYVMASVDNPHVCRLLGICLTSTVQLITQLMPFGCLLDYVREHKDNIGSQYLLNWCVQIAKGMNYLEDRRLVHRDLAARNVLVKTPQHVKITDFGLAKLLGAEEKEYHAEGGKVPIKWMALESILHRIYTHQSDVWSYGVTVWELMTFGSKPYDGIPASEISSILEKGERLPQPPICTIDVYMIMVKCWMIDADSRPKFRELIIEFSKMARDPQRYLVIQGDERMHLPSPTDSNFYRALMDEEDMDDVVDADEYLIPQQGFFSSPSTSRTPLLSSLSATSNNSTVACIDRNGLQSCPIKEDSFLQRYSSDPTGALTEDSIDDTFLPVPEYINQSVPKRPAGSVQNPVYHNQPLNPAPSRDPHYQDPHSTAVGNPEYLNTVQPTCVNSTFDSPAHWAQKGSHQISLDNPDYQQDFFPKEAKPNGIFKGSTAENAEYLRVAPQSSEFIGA
Sequence of Epidermal growth factor receptor (Homo sapiens, UniProt P00533, L858R/T790M) (P00533 25-1210 T790M/L858R limits assumed): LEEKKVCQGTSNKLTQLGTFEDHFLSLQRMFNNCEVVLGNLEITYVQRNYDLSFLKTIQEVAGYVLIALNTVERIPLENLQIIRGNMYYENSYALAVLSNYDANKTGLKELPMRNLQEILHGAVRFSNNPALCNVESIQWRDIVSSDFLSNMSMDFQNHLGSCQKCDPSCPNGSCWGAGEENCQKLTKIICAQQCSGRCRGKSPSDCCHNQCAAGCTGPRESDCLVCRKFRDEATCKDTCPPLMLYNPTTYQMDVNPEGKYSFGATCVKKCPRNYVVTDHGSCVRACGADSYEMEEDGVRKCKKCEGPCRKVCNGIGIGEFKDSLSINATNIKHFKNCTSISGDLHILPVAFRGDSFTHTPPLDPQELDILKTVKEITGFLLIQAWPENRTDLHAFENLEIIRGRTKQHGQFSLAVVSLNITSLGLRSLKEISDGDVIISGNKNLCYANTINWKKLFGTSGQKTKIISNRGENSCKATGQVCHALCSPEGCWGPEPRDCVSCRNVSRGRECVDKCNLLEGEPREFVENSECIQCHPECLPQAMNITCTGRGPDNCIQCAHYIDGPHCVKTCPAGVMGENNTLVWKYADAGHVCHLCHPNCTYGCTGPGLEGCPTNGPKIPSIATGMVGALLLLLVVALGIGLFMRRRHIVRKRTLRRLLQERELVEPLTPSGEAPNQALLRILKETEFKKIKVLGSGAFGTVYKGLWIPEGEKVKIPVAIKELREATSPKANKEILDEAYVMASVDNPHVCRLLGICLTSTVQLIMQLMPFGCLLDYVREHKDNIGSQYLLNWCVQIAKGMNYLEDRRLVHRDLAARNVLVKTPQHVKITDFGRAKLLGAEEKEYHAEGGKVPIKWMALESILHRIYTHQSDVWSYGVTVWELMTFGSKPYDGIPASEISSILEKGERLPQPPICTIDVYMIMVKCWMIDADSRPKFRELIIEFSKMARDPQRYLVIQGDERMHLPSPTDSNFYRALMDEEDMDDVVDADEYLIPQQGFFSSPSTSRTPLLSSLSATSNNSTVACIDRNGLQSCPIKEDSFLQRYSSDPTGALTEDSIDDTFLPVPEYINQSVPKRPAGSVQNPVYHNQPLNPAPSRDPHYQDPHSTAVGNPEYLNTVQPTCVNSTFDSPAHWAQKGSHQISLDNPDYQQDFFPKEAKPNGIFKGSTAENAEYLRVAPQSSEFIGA

SMILES | IC50 [1] [µM] | IC50 (A549) [µM] | IC50 (A-431) [µM] | IC50 [2] [µM] | IC50 (NCI-H1975) [µM]
COc1ccc(Nc2nc(Cl)nc(NCc3ccco3)n2)cc1 | > 100 | > 100 | > 100 | 20.9 | > 100
Cc1ccc(-n2c(SCC(=O)Nc3ccccc3Cl)nc3sc(C)c(C)c3c2=O)cc1 | 81.6 | 92.8 | > 100 | > 100 | 53.7
Cn1cc(NC(=O)/C=N/O)c(=O)n1-c1ccccc1 | > 100 | > 100 | > 100 | 8.9 | > 100
COc1cccc2c1C(=O)c1c(O)ccc(O)c1C2=O | 4.3 | > 100 | 71.5 | 17.6 | 89.4
Cn1c2ccccc2n2c(=S)[nH]nc12 | > 100 | > 100 | > 100 | 22 | > 100
CC(=O)Nc1ccc(S(=O)(=O)Nc2nc3ccccc3nc2Nc2ccc(C(=O)O)cc2)cc1 | 35.8 | > 100 | > 100 | 23.5 | > 100
Cc1c(Cc2ccccc2)sc(NCC(=O)COc2ccc3ccccc3c2)c1C(N)=O | > 100 | 61.1 | 63.8 | 24.7 | 51.7
O=C(NNC(=O)c1ncc(Cc2ccsc2)s1)Nc1ccccc1 | > 100 | > 100 | > 100 | 40.9 | > 100
O=C(Nc1cccc(Br)c1)c1c(O)c2ccccc2[nH]c1=O | > 100 | > 100 | > 100 | 56.8 | > 100
CCc1ccc(C(=O)NNc2ccc(Cl)cc2C)cc1 | > 100 | > 100 | > 100 | 65.6 | > 100
COc1ccc2c3oc(=O)cc(O)c3c(=O)n(C)c2c1 | 76.4 | 72.6 | > 100 | 65.1 | > 100
C=CCn1c(N)c(C(=O)N/N=C/c2cccs2)sc1=S | > 100 | > 100 | > 100 | 66 | > 100
O=c1c2c(-c3ccccc3)c3c(nc2nc2[nH]nc(S)n12)-c1ccccc1CC3 | 85.6 | > 100 | > 100 | > 100 | > 100
CCOC(=O)c1ccc(NC(=O)CSc2nnc(CNc3ccc(OC)cc3)n2-c2ccccc2)cc1 | 92.4 | > 100 | 56.3 | > 100 | > 100
CN(C)c1nc(N/N=C/c2cc(Br)c(O)c(Br)c2O)nc(Nc2ccc(F)cc2)n1 | 25.9 | 7.7 | 8 | 6.5 | 10.5
O=C(CSc1nc(O)nc(-c2ccc(Cl)cc2)n1)Nc1ccc(Cl)cc1 | > 100 | 42.9 | > 100 | 13 | > 100
CNc1nc(N/N=C\c2ccc(OC)cc2)nc(Nc2ccccc2)n1 | > 100 | 76.9 | 56 | 31 | > 100
COc1nc(NCCN2CCOCC2)nc(Nc2ccc(Cl)cc2)n1 | > 100 | > 100 | > 100 | 1.5 | > 100
CNc1nc(N/N=C/c2ccc(O)cc2)nc(Nc2ccccc2)n1 | > 100 | > 100 | 47 | 30.7 | > 100
COc1cccc(Nc2ccnc(Nc3cccc(OC)c3)n2)c1 | 7.7 | 3.4 | 0.8 | 36.1 | 4.1
COc1ccccc1Nc1ccnc(Nc2ccccc2OC)n1 | 90.4 | 51.2 | 35.1 | > 100 | 38.2
C=CC(=O)Nc1ccc2ncnc(Nc3ccc(OCc4cccc(F)c4)c(Cl)c3)c2c1 [ALLITINIB] | – | 6.8 | 0.2 | – | 0.7
